Laboratory results: patent US20160297830A1, “NOVEL COMPOUNDS USEFUL FOR THE TREATMENT OF BACTERIAL INFECTIOUS DISEASES” (GALAPAGOS NV, priority 2013, published 2016)
In brackets after ≈: the same amount, converted by molar mass. Read-outs that look alike come from different tables or passages of the source.

How the values were obtained:
[1] = target: DNA Polymerase IIIα (DnaE) from Staphylococcus aureus (Staphylococcus aureus, UniProt Q6GG04); assay: biochemical
[2] = test system: H. influenza Hi3 ATCC 31517; assay: organism not typed; format: cell-based; details: read-out: MIC Hi3
[3] = test system: H. influenza Hi47 clinical strain, Ampicillin Resistant; assay: organism not typed; format: cell-based; details: read-out: MIC Hi47
[4] = test system: E. coli Ec113 efflux pump KO; assay: microbe, parasite or virus in culture; format: cell-based; details: Escherichia coli, read-out: MIC Ec113 efflux pump KO
[5] = test system: S. aureus Sa2 clinical strain NCIMB 41953, MRSA; assay: microbe, parasite or virus in culture; format: cell-based; details: Staphylococcus aureus, read-out: MIC Sa2
[6] = test system: S. aureus Sa1 ATCC 13709; assay: microbe, parasite or virus in culture; format: cell-based; details: Staphylococcus aureus
[7] = test system: S. aureus Sa26 ATCC 25923; assay: Antibacterial activity assay (MIC), S. aureus Sa26; format: cell-based; details: Staphylococcus aureus
[8] = test system: H. influenza Hi10 clinical strain; assay: organism not typed; format: cell-based; details: read-out: MIC Hi10
[9] = test system: E. coli Ec50 efflux pump KO; assay: microbe, parasite or virus in culture; format: cell-based; details: Escherichia coli, read-out: MIC Ec50 efflux pump KO
[10] = test system: E. coli Ec1 ATCC 25922; assay: Antibacterial activity assay (MIC), E. coli Ec1; format: cell-based; details: Escherichia coli
[11] = target: DNA III Polymerase E (Escherichia coli, UniProt P10443); assay: In vitro activity against DNA III Polymerase E, E. coli; format: biochemical; details: DNA polymerase III, E. coli; read-out: IC50 semiquantitative scoring, E. coli
Sequence of DNA III Polymerase E (P10443 whole entry): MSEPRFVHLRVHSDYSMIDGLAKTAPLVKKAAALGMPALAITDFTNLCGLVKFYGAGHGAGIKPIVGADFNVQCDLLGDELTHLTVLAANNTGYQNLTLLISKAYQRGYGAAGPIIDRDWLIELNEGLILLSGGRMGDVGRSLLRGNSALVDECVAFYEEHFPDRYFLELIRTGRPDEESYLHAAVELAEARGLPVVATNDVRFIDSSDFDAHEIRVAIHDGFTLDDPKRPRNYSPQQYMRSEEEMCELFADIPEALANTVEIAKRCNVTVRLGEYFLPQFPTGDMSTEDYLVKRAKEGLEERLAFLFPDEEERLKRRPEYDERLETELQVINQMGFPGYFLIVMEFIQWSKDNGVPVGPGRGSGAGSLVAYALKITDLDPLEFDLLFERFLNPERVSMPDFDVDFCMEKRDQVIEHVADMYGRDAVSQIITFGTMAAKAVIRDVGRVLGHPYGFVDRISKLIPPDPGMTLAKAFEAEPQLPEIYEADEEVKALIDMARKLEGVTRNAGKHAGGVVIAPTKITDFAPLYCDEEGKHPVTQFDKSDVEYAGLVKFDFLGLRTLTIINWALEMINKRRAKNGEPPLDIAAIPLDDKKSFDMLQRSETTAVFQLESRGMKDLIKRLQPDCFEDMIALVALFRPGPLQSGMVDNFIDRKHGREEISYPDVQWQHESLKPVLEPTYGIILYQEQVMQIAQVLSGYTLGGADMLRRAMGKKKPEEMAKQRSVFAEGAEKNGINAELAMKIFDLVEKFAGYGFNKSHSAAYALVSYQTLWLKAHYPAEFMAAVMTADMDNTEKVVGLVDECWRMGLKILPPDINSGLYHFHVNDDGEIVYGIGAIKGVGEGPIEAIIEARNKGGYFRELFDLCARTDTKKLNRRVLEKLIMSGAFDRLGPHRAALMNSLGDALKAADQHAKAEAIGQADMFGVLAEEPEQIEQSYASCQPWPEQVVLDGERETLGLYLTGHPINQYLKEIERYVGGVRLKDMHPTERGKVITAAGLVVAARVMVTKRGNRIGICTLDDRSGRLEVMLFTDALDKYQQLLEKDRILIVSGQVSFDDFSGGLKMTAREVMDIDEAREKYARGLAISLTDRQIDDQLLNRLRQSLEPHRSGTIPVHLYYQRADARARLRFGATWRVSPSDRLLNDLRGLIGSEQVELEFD
Method: A radioactive filterplate assay was used to assess inhibitory activity of compounds on DNA Polymerase IIIα. Five μL of a dilution series of compound, starting from 100 μM highest concentration, 1/5 dilution, was added to the wells of a 96 well plate. Recombinant enzyme was diluted to 0.47 μg/mL in a buffer containing 20 mM Tris pH7.5, 8 mM DTT, 10 mM MgOAc, 0.05% CHAPS and 10 μL thereof was added to the compound dilutions. The reaction was started with the addition of 10 μL substrate in the same buffer, containing activated calf thymus DNA (Sigma, D4522), dATP, dGTP, dCTP, dTTP (Invitrogen) and [α-33P]-dTTP (Perkin Elmer, NEG605H001) at a concentration of 62.5 μg/mL, 50 nM and 7.5 μCi/mL respectively. The mixture was incubated at 30° C. for 120 minutes and terminated by addition of phosphoric acid. Samples were transferred to filter plates and incorporated radioactivity was measured by the Topcount. Data were converted to percent inhibition with respect to positive and negative controls. IC50 values were calculated using Graph Prism™ software.

[12] = test system: S. aureus Sa4 NCTC 6571; assay: Antibacterial activity assay (MIC), S. aureus Sa4; format: cell-based; details: Staphylococcus aureus
[13] = test system: H. influenza Hi106 ATCC 51907; assay: organism not typed; format: cell-based; details: read-out: MIC Hi106
[14] = DNA polymerase III, S. aureus, read-out: IC50 semiquantitative scoring, S. aureus
[15] = ATCC13709, S. aureus Sa1 ATCC 13709, sensitive strain, Mueller-Hinton Broth, 37° C., read-out: MIC Sa1
[16] = ATCC25923, read-out: MIC Sa26 + 10% SH, S. aureus Sa26 + 10% SH
[17] = ATCC25923, read-out: MIC Sa26 + 50% SH, S. aureus Sa26 + 50% SH
[18] = ATCC25923, S. aureus Sa26 ATCC 25923, sensitive strain, Mueller-Hinton Broth, 37° C., read-out: MIC Sa26
[19] = ATCC25922, E. coli Ec1 ATCC 25922, sensitive strain, read-out: MIC Ec1
[20] = NCTC6571, S. aureus Sa4 NCTC 6571, sensitive strain, read-out: MIC Sa4
[21] = ATCC25923, read-out: MIC Sa26 + 10% SH
[22] = ATCC25923, read-out: MIC Sa26 + 50% SH

Sequence of DNA Polymerase IIIα (DnaE) from Staphylococcus aureus (Q6GG04 1-1022): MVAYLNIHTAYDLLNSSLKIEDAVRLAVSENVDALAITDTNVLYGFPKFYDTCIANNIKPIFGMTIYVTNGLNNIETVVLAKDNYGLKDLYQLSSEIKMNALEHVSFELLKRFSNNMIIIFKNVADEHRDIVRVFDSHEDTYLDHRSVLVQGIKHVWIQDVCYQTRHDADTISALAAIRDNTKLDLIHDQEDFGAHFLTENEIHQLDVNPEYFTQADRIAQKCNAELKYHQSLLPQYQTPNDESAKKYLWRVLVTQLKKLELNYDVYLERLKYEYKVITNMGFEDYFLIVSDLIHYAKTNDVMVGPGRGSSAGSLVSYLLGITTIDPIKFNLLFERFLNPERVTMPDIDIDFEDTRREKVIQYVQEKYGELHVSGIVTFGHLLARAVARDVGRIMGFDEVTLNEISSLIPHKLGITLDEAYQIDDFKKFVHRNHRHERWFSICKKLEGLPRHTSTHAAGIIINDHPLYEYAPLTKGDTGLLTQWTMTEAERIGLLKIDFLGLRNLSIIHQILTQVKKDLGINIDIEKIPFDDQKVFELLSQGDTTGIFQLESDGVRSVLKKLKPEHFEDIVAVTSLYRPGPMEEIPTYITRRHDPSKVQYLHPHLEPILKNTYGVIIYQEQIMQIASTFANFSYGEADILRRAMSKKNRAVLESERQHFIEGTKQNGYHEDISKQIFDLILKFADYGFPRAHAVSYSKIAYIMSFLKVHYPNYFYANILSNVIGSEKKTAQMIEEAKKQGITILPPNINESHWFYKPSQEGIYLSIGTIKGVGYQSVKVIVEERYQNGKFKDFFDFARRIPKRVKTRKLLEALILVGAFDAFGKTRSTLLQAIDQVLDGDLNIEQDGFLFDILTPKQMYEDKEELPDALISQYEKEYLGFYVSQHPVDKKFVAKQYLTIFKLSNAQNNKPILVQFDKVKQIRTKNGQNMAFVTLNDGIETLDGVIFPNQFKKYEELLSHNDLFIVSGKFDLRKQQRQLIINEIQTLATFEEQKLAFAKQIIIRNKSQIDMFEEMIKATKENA

SMILES	IC50 [1, 14] [nM]	MIC [2] [µg/mL]	MIC [3] [µg/mL]	MIC [4] [µg/mL]	MIC [5] [µg/mL]	MIC [6, 15] [µg/mL]	MIC [7, 16] [µg/mL]	MIC [7, 17] [µg/mL]	MIC [7, 18] [µg/mL]	MIC [8] [µg/mL]	MIC [9] [µg/mL]	IC50 [11] [nM]	MIC [13] [µg/mL]	IC50 [1] [nM]	MIC ([6]; ATCC13709, read-out: MIC Sa1) [µg/mL]	MIC ([7]; ATCC25923, read-out: MIC Sa26) [µg/mL]	MIC [7, 21] [µg/mL]	MIC [7, 22] [µg/mL]	MIC ([10]; ATCC25922, read-out: MIC Ec1) [µg/mL]	MIC ([12]; NCTC6571, read-out: MIC Sa4) [µg/mL]	other results
COC[C@@H]1[C@@H](O)[C@@H]2[C@H]3C=C[C@@H]4[C@@H](COC)C(=O)O[C@H]([C@H](O)COC)[C@H](C)/C=C(\C)[C@@]24O[C@H]3[C@@H]1OC(=O)c1cocn1 [Compound 8, 8-O-Oxazole-4′-carbonylbranimycin]	1730 to 17300	> 64	> 64	64 (≈ 111 µM)	> 64	> 64	> 64	> 64	> 64	> 64	> 64	> 17300	> 64								MIC [10, 19]: > 64 µg/mL; MIC [12, 20]: > 64 µg/mL
COC[C@@H]1[C@@H](O)[C@@H]2[C@H]3C=C[C@@H]4[C@@H](COC)C(=O)O[C@H]([C@H](O)COC)[C@H](C)/C=C(\C)[C@@]24O[C@H]3[C@@H]1OC(=O)c1cc(C)c[nH]1 [Compound 12, 8-O-4-Methyl-1H-pyrrole-2′-carbonylbranimycin]		> 64	64 (≈ 109 µM)	2 (≈ 3.39 µM)	4 (≈ 6.78 µM)					> 64	> 64	> 17000	64 (≈ 109 µM)	1.7 to 1700	8 (≈ 13.6 µM)	16 (≈ 27.1 µM)	8	16	> 64	8 (≈ 13.6 µM)	
COC[C@@H]1[C@@H](O)[C@@H]2[C@H]3C=C[C@@H]4[C@@H](COC)C(=O)O[C@H]([C@H](O)COC)[C@H](C)/C=C(\C)[C@@]24O[C@H]3[C@@H]1OC(=O)c1cc(C#N)c[nH]1 [Compound 26, 8-O-4-Cyano-1H-pyrrole-2′-carbonylbranimycin]		> 128	> 128	4 (≈ 6.66 µM)	64 (≈ 107 µM)					> 128	2 (≈ 3.33 µM)	1660 to 16600	> 128	1.66 to 1660	64 (≈ 107 µM)	128 (≈ 213 µM)	128	64	> 128	64 (≈ 107 µM)	
COC[C@@H]1[C@@H](O)[C@@H]2[C@H]3C=C[C@@H]4[C@@H](COC)C(=O)O[C@H]([C@H](O)COC)[C@H](C)/C=C(\C)[C@@]24O[C@H]3[C@@H]1OC(=O)c1ccsc1 [Compound 9, 8-O-Thiophene-3′-carbonylbranimycin]	1.69 to 1690	> 64	> 64	4 (≈ 6.75 µM)	4 (≈ 6.75 µM)	4 (≈ 6.75 µM)	2	4	2 (≈ 3.37 µM)	> 64	> 64	> 16900	> 64								MIC [10, 19]: > 64 µg/mL; MIC [12, 20]: 2 µg/mL (≈ 3.37 µM)
COC[C@@H]1[C@@H](O)[C@@H]2[C@H]3C=C[C@@H]4[C@@H](COC)C(=O)O[C@H]([C@@H](COC)OC)[C@H](C)/C=C(\C)[C@@]24O[C@H]3[C@@H]1OC(=O)c1ccc[nH]1 [Compound 18, 17-O-Methyl-8-O-1H-pyrrole-2′-carbonylbranimycin]		> 64	> 64	2 (≈ 3.39 µM)	1 (≈ 1.7 µM)					> 64	> 64	1700 to 17000	> 64	1.7 to 1700	1 (≈ 1.7 µM)	1 (≈ 1.7 µM)	1	2	> 64	1 (≈ 1.7 µM)	
